Measurements reported in patent US11628198B2, “Methods for prevention and treatment of acute renal injury” (Cornell University, priority 2008, dated 2023).
Marks after values point to notes of the source that are not given here.

Columns and labels:
Assay type in all cases: in vivo, rat
[1] = test system: CCl4 induced chronic nephrotoxicity; assay: CCl4 chronic kidney injury model: renal histology; conditions: 10 mg/kg s.c. 5 days a week for 7 wks
Text: Study design and experimental protocol: In this model, SD rats with body weight of 250 g were fed with 0.35 g/L phenobarbital solution (Luminal water) for two weeks, then divided into three groups and treated as follows.
At the end of fifth week, four rats from each group were sacrificed for liver histopathological sectioning and fibrosis examination. In the end of 7th week, all remaining rats in each group were sacrificed, and kidney and liver tissues were harvest for histopathological sectioning and examination.
Renal Histology: Kidneys were fixed in 10% neutral-buffered formalin and embedded in paraffin wax. Three micron sections were stained with hematoxylin-eosin (H&E) and analyzed by light microscopy by a certified pathologist.

[2] = test system: CIN in glycerol-induced rhabdomyolysis animal model; assay: CIN in glycerol-induced rhabdomyolysis model, Experiment 2
Protocol: SD rats with body weight of 300-400 grams were dehydrated for 24 h followed by i.m. injection with 25% glycerol solution (v/v) at the dose of 10 ml/kg. Twenty-four hours later, the rats were grouped and subjected to contrast induced nephropathy study protocol. Sixteen SD rats with body weight of 300-350 g were randomized into three groups with the doses, dosing schedules and study protocol presented in FIG. 23. The effects of SS-31 on ARI can be examined by comparing the renal functions in animals from group A with that from group B. Samples were analyzed by Student's t-test and differences were considered significant at p<0.05.
Renal function: Renal function was assessed by determining serum and urinary creatinine using Jiancheng Cr kit (Nanjing, P.R.C) at baseline, 24 h after dehydration and 48 h post the contrast dye administration. The creatinine clearance was calculated based on the Scr, Ucr and urinary volume. Urinary protein concentration was determined by Bradford Protein Assay kit (Sigma, St. Louis, Mo.).

[3] = test system: ARI caused by ischemia-reperfusion (I/R); assay: I/R model of ARI: BUN and serum creatinine; conditions: 45 min ischemia and 24 h reperfusion; 3 mg/kg 30 min before ischemia and before reperfusion
Protocol: Sprague Dawley rats (250˜300 g) were assigned to four groups: (1) sham surgery group without I/R; (2) I/R+saline vehicle treatment; (3) I/R+SS-20 treatment; (4) I/R+SS-31 treatment. Each experimental group consisted of 8 rats. SS-20 and SS-31 (3 mg/kg, dissolved in saline) were administered to rats 30 min before ischemia and immediately before onset of reperfusion. The control rats were given saline alone on the same schedule.
Rats were anesthetized with a mixture of ketamine (90 mg/kg, i.p.) and xylazine (4 mg/kg, i.p.). The left renal vascular pedicle was occluded temporarily using a micro-clamp for 30 or 45 min. At the end of the ischemic period, reperfusion was established by removing of the clamp. At that time, the contralateral right kidney was removed. After 24 h reperfusion, animals were sacrificed and blood samples were obtained by cardiac puncture. Renal function was determined by blood urea nitrogen (BUN) and serum creatinine (BioAssay Systems DIUR-500 and DICT-500).
BUN and serum creatinine were assayed using kits from BioAssay Systems (DIUR-500 and DICT-500). […] The # indicates p<0.05 from the IR=saline group.

[4] = test system: radiocontrast dye-induced renal failure; assay: CIN, indomethacin/L-NAME model, Experiment 2
Protocol: Animal model: The same indomethacin and L-NAME model described above was used in this experiment. In this model, impaired renal function was induced by the administration of indomethacin (8 mg/kg) and L-NAME (10 mg/kg).
Renal function: Renal function was assessed by determining serum and urinary creatinine using DICT-kit from Bioassays Systems (Hayward, Calif.) at baseline and 26 h following dye administration. Urinary protein concentration was also determined at baseline and 26 h following dye administration by BCA Protein Assay kit (Thermo Scientific, Rockford, Ill.). Samples were analyzed by students t-test and differences were considered significant at p<0.05.
Renal Histology: Kidneys were fixed in 10% neutral-buffered formalin and embedded in paraffin wax. Three micron sections were stained with hematoxylin-eosin (H&E) and periodic acid-Schiff (PAS) and analyzed by light microscopy by a board certified pathologist.

[5] = test system: ARI caused by ureteral obstruction (UUO); assay: 14-day UUO model: immunohistochemistry and TUNEL
Protocol: Sprague-Dawley rats underwent unilateral ureteral ligation (UUO) with 4-0 silk suture through a midline abdominal incision under sterile conditions. Ureteral obstruction was carried out by ligating the left ureter at the end of lower ureter, just above the ureterovesical junction.
SS-31 (1 mg/kg or 3 mg/kg; n=8) was administered intraperitoneally, one day prior to UUO and continuing for 14 days. A separate group of animals was given saline, as a vehicle control (n=16).
Immunohistochemical Analysis: Immunohistochemical staining for macrophages was carried out using a monoclonal antibody to ED-1 (Serotec) as previously described. Macrophages were counted in 10 high-power fields (×400) by two different independent investigators in a blinded fashion. The TUNEL assay was performed as described in Example 1. The presence of fibroblasts was examined using immunohistochemistry, as described in Example 1. The antibody utilized was DAKO #S100-A4 (1:100 dilution). The S100-A4 antigen is also known as FSP-1 (fibroblast specific protein). Antigen was retrieved by incubating cells with Proteinase K for 20 min in an oven. The remaining immunoperoxidase protocol was carried out according to routine procedures. Staining for S100-A4 was found in spindle-shaped interstitial cells, and also in cells which were round, and were identified as inflammatory cells by the pathologist. Only spindle-shaped cells were included in the counts. […] 8-OH dG staining was carried using Proteinase K for antigen retrieval. The antibody used was from the Japan Institute Control of Aging, and was used at a dilution of 1:200-1:500.

[6] = 26 h post contrast dye vs baseline

**Q.** Which “renal histology (H&E)” value [1] does the source give for D-Arg-2′6′Dmt-Lys-Phe-NH2 [SS-31] here?
**A.** no observable histopathological change

**Q.** And the “reduction of creatinine clearance” value ([2]; 48 h post dye)?
**A.** 13%

**Q.** And the “24 h urinary protein level” value ([2]; T0 (24 h post glycerin), no peptide yet)?
**A.** 50.2 ± 8.6 mg

**Q.** What about the “24 h urinary protein level” value ([2]; T1 (48 h post glycerin and 24 hrs post dye)) of the same substance?
**A.** 39.5 ± 3.5 mg

**Q.** What about the “24 h urinary protein level” value ([2]; Tb (baseline), no peptide yet) of the same substance?
**A.** 15.5 ± 1.5 mg

**Q.** What about the “PAS staining of kidney” value ([2]; glycerin, dye) of the same substance?
**A.** intact brush borders, normal glomeruli and minimum protein cast in the tubular cells

**Q.** And the BUN [3]?
**A.** 113.8 ± 11.4# mg/dl

**Q.** What about the “serum creatinine” value [3] of the same substance?
**A.** 1.05 ± 0.16# mg/dl

**Q.** And the SCr ([4]; 1 day (26 h post dye))?
**A.** 0.73 ± 0.04 mg/dL

**Q.** What about the “U protein BCA” value ([4]; 1 day (26 h post dye)) of the same substance?
**A.** 11.76 ± 2.71 mg/mL

**Q.** What about the Ucr ([4]; 1 day (26 h post dye)) of the same substance?
**A.** 38.12 ± 8.19 mg/dL

**Q.** What about the Scr increase [4, 6] of the same substance?
**A.** 9%

**Q.** What about the “urinary protein concentration increase” value [4, 6] of the same substance?
**A.** 1.7 fold

**Q.** And the “rats protected from contrast dye induced nephropathy (Scr increase less than 25% at 26 h post dye)” value ([4]; 26 h post dye)?
**A.** Five out of seven

**Q.** What about the SCr ([4]; Baseline) of the same substance?
**A.** 0.67 ± 0.09 mg/dL

**Q.** What about the “U protein BCA” value ([4]; Baseline) of the same substance?
**A.** 4.28 ± 1.15 mg/mL

**Q.** And the Ucr ([4]; Baseline)?
**A.** 15.54 ± 3.87 mg/dL

**Q.** And the “PAS staining of kidney” value ([4]; dye-injected)?
**A.** intact brush borders and normal glomeruli

**Q.** And the “fibroblast infiltration (FSP-1) in the OK” value ([5]; 1 mg/kg)?
**A.** 43.4 % of control

**Q.** And the “tubular apoptosis (TUNEL)” value ([5]; 1 mg/kg)?
**A.** 5.1±0.5 cells per HPF

**Q.** And the “tubular proliferation (PCNA), increase” value ([5]; 1 mg/kg)?
**A.** 2 fold

**Q.** What about the “fibroblast infiltration (FSP-1) in the OK” value ([5]; 3 mg/kg) of the same substance?
**A.** 28.0 % of the untreated OK

**Q.** What about the “renal tubular apoptosis (TUNEL)” value ([5]; 3 mg/kg) of the same substance?
**A.** 3.0±0.3 apoptotic cells/HPF

**Q.** What about the “tubular proliferation (PCNA), increase” value ([5]; 3 mg/kg) of the same substance?
**A.** 3.5 fold

**Q.** And the “macrophage infiltration into the OK (ED-1)” value ([5]; 1 and 3 mg/kg)?
**A.** significantly decreased macrophage infiltration

**Q.** And the “8-OH dG positive cells/HPF” value ([5]; obstructed kidney)?
**A.** significantly reduced
